{
  "source": "the supplement of paper PMC10307832",
  "test_in_all_cases": "relative viability (nuclei count vs DMSO), 5 days (fraction); higher = more cells survive",
  "key": {"NCI-H596": {"test_system": "NCI-H596", "method_in_brief": "(§1)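 Dosing by pin tool came one day after lung cancer cell lines were seeded in 1536-well plates, using either one drug or a fixed anchor-drug dose plus five library-drug doses (not always all listed) in √10 steps. After 5 days, nuclei were counted on 4× images. Relative viability is treated-well nuclei count divided by vehicle-well nuclei count, and values are medians of duplicate plates.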"}, "NCI-H2126": {"test_system": "NCI-H2126", "method_in_brief": "as §1"}, "HCC-827": {"test_system": "HCC-827", "method_in_brief": "as §1"}, "NCI-H1650": {"test_system": "NCI-H1650", "method_in_brief": "as §1"}, "LK-2": {"test_system": "LK-2", "method_in_brief": "as §1"}, "COR-L23": {"test_system": "COR-L23", "method_in_brief": "as §1"}, "EKVX": {"test_system": "EKVX", "method_in_brief": "as §1"}, "NCI-H2087": {"test_system": "NCI-H2087", "method_in_brief": "as §1"}, "BEN": {"test_system": "BEN", "method_in_brief": "as §1"}, "EMC-BAC-2": {"test_system": "EMC-BAC-2", "method_in_brief": "as §1"}, "NCI-H1915": {"test_system": "NCI-H1915", "method_in_brief": "as §1"}, "EPLC-272H": {"test_system": "EPLC-272H", "method_in_brief": "as §1"}, "NCI-H1793": {"test_system": "NCI-H1793", "method_in_brief": "as §1"}, "LCLC-103H": {"test_system": "LCLC-103H", "method_in_brief": "as §1"}, "HCC-44": {"test_system": "HCC-44", "method_in_brief": "as §1"}, "NCI-H2347": {"test_system": "NCI-H2347", "method_in_brief": "as §1"}, "LXF-289": {"test_system": "LXF-289", "method_in_brief": "as §1"}, "A-427": {"test_system": "A-427", "method_in_brief": "as §1"}, "SW 1573": {"test_system": "SW 1573", "method_in_brief": "as §1"}, "NCI-H1651": {"test_system": "NCI-H1651", "method_in_brief": "as §1"}, "201T": {"test_system": "201T", "method_in_brief": "as §1"}, "NCI-H358": {"test_system": "NCI-H358", "method_in_brief": "as §1"}, "NCI-H460": {"test_system": "NCI-H460", "method_in_brief": "as §1"}},
  "data": [
    {"smiles": "Cc1cnc(-c2cnc(NCCNc3ccc(C#N)cn3)nc2-c2ccc(Cl)cc2Cl)[nH]1", "note": "+ COc1cccc2cc(-c3nc([C@H]4CC[C@H](C(=O)O)CC4)n4ncnc(N)c34)[nH]c12 [OSI-027] (partner 0.5 µM)", "values": [
      {"measurement": "relative viability", "setting": "NCI-H596; first compound 0.08 µM", "value": 0.846},
      {"measurement": "relative viability", "setting": "NCI-H596; first compound 0.253 µM", "value": 0.73},
      {"measurement": "relative viability", "setting": "NCI-H596; first compound 0.8 µM", "value": 0.483},
      {"measurement": "relative viability", "setting": "NCI-H596; first compound 2.53 µM", "value": 0.668},
      {"measurement": "relative viability", "setting": "NCI-H2126; first compound 0.08 µM", "value": 0.704},
      {"measurement": "relative viability", "setting": "NCI-H2126; first compound 0.253 µM", "value": 0.622},
      {"measurement": "relative viability", "setting": "NCI-H2126; first compound 0.8 µM", "value": 0.64},
      {"measurement": "relative viability", "setting": "NCI-H2126; first compound 2.53 µM", "value": 0.776},
      {"measurement": "relative viability", "setting": "HCC-827; first compound 0.08 µM", "value": 0.903},
      {"measurement": "relative viability", "setting": "HCC-827; first compound 0.8 µM", "value": 0.814},
      {"measurement": "relative viability", "setting": "HCC-827; first compound 2.53 µM", "value": 0.759},
      {"measurement": "relative viability", "setting": "NCI-H1650; first compound 0.08 µM", "value": 0.75},
      {"measurement": "relative viability", "setting": "NCI-H1650; first compound 0.253 µM", "value": 0.61},
      {"measurement": "relative viability", "setting": "NCI-H1650; first compound 0.8 µM", "value": 0.554},
      {"measurement": "relative viability", "setting": "NCI-H1650; first compound 2.53 µM", "value": 0.56},
      {"measurement": "relative viability", "setting": "LK-2; first compound 0.08 µM", "value": 0.204},
      {"measurement": "relative viability", "setting": "LK-2; first compound 0.253 µM", "value": 0.248},
      {"measurement": "relative viability", "setting": "LK-2; first compound 0.8 µM", "value": 0.231},
      {"measurement": "relative viability", "setting": "LK-2; first compound 2.53 µM", "value": 0.318},
      {"measurement": "relative viability", "setting": "COR-L23; first compound 0.08 µM", "value": 0.805},
      {"measurement": "relative viability", "setting": "COR-L23; first compound 0.253 µM", "value": 0.762},
      {"measurement": "relative viability", "setting": "COR-L23; first compound 0.8 µM", "value": 0.885},
      {"measurement": "relative viability", "setting": "COR-L23; first compound 2.53 µM", "value": 0.906},
      {"measurement": "relative viability", "setting": "EKVX; first compound 0.08 µM", "value": 0.768},
      {"measurement": "relative viability", "setting": "EKVX; first compound 0.253 µM", "value": 0.706},
      {"measurement": "relative viability", "setting": "EKVX; first compound 0.8 µM", "value": 0.589},
      {"measurement": "relative viability", "setting": "EKVX; first compound 2.53 µM", "value": 0.624},
      {"measurement": "relative viability", "setting": "NCI-H2087; first compound 0.08 µM", "value": 0.48},
      {"measurement": "relative viability", "setting": "NCI-H2087; first compound 0.253 µM", "value": 0.467},
      {"measurement": "relative viability", "setting": "NCI-H2087; first compound 0.8 µM", "value": 0.507},
      {"measurement": "relative viability", "setting": "NCI-H2087; first compound 2.53 µM", "value": 0.44},
      {"measurement": "relative viability", "setting": "BEN; first compound 0.08 µM", "value": 0.352},
      {"measurement": "relative viability", "setting": "BEN; first compound 0.253 µM", "value": 0.307},
      {"measurement": "relative viability", "setting": "BEN; first compound 0.8 µM", "value": 0.324},
      {"measurement": "relative viability", "setting": "BEN; first compound 2.53 µM", "value": 0.371},
      {"measurement": "relative viability", "setting": "EMC-BAC-2; first compound 0.08 µM", "value": 0.407},
      {"measurement": "relative viability", "setting": "EMC-BAC-2; first compound 0.253 µM", "value": 0.37},
      {"measurement": "relative viability", "setting": "EMC-BAC-2; first compound 0.8 µM", "value": 0.341},
      {"measurement": "relative viability", "setting": "EMC-BAC-2; first compound 2.53 µM", "value": 0.447},
      {"measurement": "relative viability", "setting": "NCI-H1915; first compound 0.08 µM", "value": 0.715},
      {"measurement": "relative viability", "setting": "NCI-H1915; first compound 0.253 µM", "value": 0.586},
      {"measurement": "relative viability", "setting": "NCI-H1915; first compound 0.8 µM", "value": 0.658},
      {"measurement": "relative viability", "setting": "NCI-H1915; first compound 2.53 µM", "value": 0.812},
      {"measurement": "relative viability", "setting": "EPLC-272H; first compound 0.08 µM", "value": 0.342},
      {"measurement": "relative viability", "setting": "EPLC-272H; first compound 0.253 µM", "value": 0.261},
      {"measurement": "relative viability", "setting": "EPLC-272H; first compound 0.8 µM", "value": 0.304},
      {"measurement": "relative viability", "setting": "EPLC-272H; first compound 2.53 µM", "value": 0.317},
      {"measurement": "relative viability", "setting": "NCI-H1793; first compound 0.08 µM", "value": 0.322},
      {"measurement": "relative viability", "setting": "NCI-H1793; first compound 0.253 µM", "value": 0.276},
      {"measurement": "relative viability", "setting": "NCI-H1793; first compound 0.8 µM", "value": 0.191},
      {"measurement": "relative viability", "setting": "NCI-H1793; first compound 2.53 µM", "value": 0.279},
      {"measurement": "relative viability", "setting": "LCLC-103H; first compound 0.08 µM", "value": 0.46},
      {"measurement": "relative viability", "setting": "LCLC-103H; first compound 0.253 µM", "value": 0.413},
      {"measurement": "relative viability", "setting": "LCLC-103H; first compound 0.8 µM", "value": 0.428},
      {"measurement": "relative viability", "setting": "LCLC-103H; first compound 2.53 µM", "value": 0.473},
      {"measurement": "relative viability", "setting": "HCC-44; first compound 0.08 µM", "value": 0.555},
      {"measurement": "relative viability", "setting": "HCC-44; first compound 0.253 µM", "value": 0.483},
      {"measurement": "relative viability", "setting": "HCC-44; first compound 0.8 µM", "value": 0.485},
      {"measurement": "relative viability", "setting": "HCC-44; first compound 2.53 µM", "value": 0.932},
      {"measurement": "relative viability", "setting": "NCI-H2347; first compound 0.08 µM", "value": 0.397},
      {"measurement": "relative viability", "setting": "NCI-H2347; first compound 0.253 µM", "value": 0.415},
      {"measurement": "relative viability", "setting": "NCI-H2347; first compound 0.8 µM", "value": 0.324},
      {"measurement": "relative viability", "setting": "NCI-H2347; first compound 2.53 µM", "value": 0.426},
      {"measurement": "relative viability", "setting": "LXF-289; first compound 0.08 µM", "value": 0.926},
      {"measurement": "relative viability", "setting": "LXF-289; first compound 0.253 µM", "value": 0.777},
      {"measurement": "relative viability", "setting": "LXF-289; first compound 0.8 µM", "value": 0.882},
      {"measurement": "relative viability", "setting": "LXF-289; first compound 2.53 µM", "value": 0.829},
      {"measurement": "relative viability", "setting": "A-427; first compound 0.08 µM", "value": 0.547},
      {"measurement": "relative viability", "setting": "A-427; first compound 0.253 µM", "value": 0.41},
      {"measurement": "relative viability", "setting": "A-427; first compound 0.8 µM", "value": 0.608},
      {"measurement": "relative viability", "setting": "A-427; first compound 2.53 µM", "value": 0.653},
      {"measurement": "relative viability", "setting": "SW 1573; first compound 0.08 µM", "value": 0.538},
      {"measurement": "relative viability", "setting": "SW 1573; first compound 0.253 µM", "value": 0.483},
      {"measurement": "relative viability", "setting": "SW 1573; first compound 0.8 µM", "value": 0.33},
      {"measurement": "relative viability", "setting": "SW 1573; first compound 2.53 µM", "value": 0.363},
      {"measurement": "relative viability", "setting": "NCI-H1651; first compound 0.08 µM", "value": 0.797},
      {"measurement": "relative viability", "setting": "NCI-H1651; first compound 0.253 µM", "value": 0.589},
      {"measurement": "relative viability", "setting": "NCI-H1651; first compound 0.8 µM", "value": 0.71},
      {"measurement": "relative viability", "setting": "NCI-H1651; first compound 2.53 µM", "value": 0.801},
      {"measurement": "relative viability", "setting": "201T; first compound 0.08 µM", "value": 0.562},
      {"measurement": "relative viability", "setting": "201T; first compound 0.8 µM", "value": 0.819},
      {"measurement": "relative viability", "setting": "201T; first compound 2.53 µM", "value": 0.768},
      {"measurement": "relative viability", "setting": "NCI-H358; first compound 0.08 µM", "value": 0.843},
      {"measurement": "relative viability", "setting": "NCI-H358; first compound 0.253 µM", "value": 0.647},
      {"measurement": "relative viability", "setting": "NCI-H358; first compound 0.8 µM", "value": 0.771},
      {"measurement": "relative viability", "setting": "NCI-H358; first compound 2.53 µM", "value": 0.627},
      {"measurement": "relative viability", "setting": "NCI-H460; first compound 0.08 µM", "value": 0.749},
      {"measurement": "relative viability", "setting": "NCI-H460; first compound 0.253 µM", "value": 0.582},
      {"measurement": "relative viability", "setting": "NCI-H460; first compound 0.8 µM", "value": 0.675},
      {"measurement": "relative viability", "setting": "NCI-H460; first compound 2.53 µM", "value": 0.669}
    ]}
  ]
}
